# Paper PMC13499021, “Cellular Assays for Dynamic Quantification of Deubiquitinase Activity and Inhibition” (Journal of molecular biology, 2023)
# pIC50: −log10 of the molar value. Values joined by “and” are separate entries in the source; they are usually repeats but may differ in a detail not shown here. Identical values can stand only once. Like-named read-outs stand apart in the source and are kept apart here. Where a SMILES comes first, the peptide text is derived from it. The star is where a group is joined. Cbz = O=C(OCc1ccccc1)*
# Experiments:
# GFPNb^R35Q-USP7 [1] = format: cell-based
# USP7 = details: cited from earlier work
# MM.1S cells = details: read-out: IC50, block of proliferation; cited from earlier work
# GFPNb^E103Q-USP7 = format: cell-based
# GFPNb^R35Q-USP7 [2] = format: cell-based; details: read-out: cellular IC50
# GFPNb^WT-USP7 = format: cell-based
# [3] = target: R-EGFP reporter (enhanced green fluorescent protein with an N-terminal arginine, made as the Ub-R-EGFP fusion)
# GFPNb^R35Q-USP7 [4] = target: T1, GFPNb^R35Q-USP7 (Homo sapiens, UniProt Q93009); format: cell-based
# T1 sequence (Q93009 with tags, fused parts or gaps limits assumed, stated change not applied): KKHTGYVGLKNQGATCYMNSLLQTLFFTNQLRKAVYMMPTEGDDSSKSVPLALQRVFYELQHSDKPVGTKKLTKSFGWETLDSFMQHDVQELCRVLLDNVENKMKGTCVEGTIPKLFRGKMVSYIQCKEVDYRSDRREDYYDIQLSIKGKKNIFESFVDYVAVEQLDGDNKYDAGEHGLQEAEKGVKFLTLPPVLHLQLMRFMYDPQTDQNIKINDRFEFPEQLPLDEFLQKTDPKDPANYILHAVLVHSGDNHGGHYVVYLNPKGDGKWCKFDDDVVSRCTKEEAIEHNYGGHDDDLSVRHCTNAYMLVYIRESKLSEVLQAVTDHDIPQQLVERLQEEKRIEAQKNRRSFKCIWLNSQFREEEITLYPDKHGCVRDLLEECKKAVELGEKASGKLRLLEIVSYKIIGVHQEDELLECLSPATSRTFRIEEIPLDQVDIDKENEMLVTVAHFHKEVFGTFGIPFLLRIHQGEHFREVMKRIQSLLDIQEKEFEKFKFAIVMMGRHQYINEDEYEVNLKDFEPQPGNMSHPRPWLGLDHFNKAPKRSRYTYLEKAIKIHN
# purified USP7 = purified USP7 and Ub-AMC substrate; reported; cited from earlier work
# GFPNb^R35Q-USP7 [5] = target: T1, GFPNb^R35Q-USP7; format: cell-based; remark: listed apart in the source
# proteasome = format: cell-based
# SARS2-PL^pro = format: cell-based
# [6] = tested on: homologous enzyme (PL^pro) from MERS; details: cited from earlier work
# SARS2 PL^pro = details: read-out: inhibitory concentrations (IC50); cited from earlier work
# [7] = tested on: homologous enzyme (PL^pro) from NL63; details: cited from earlier work
# KF LSCC cells = tested on: KF LSCC cells; design: method as in PMID 34636321; details: cited from earlier work
# GFPNb^R35Q-USP28 = format: cell-based
# [8] = 10 μM compound for 16 h, USP7 fused to WT GFP nanobody
compound,measurement,setting,value
O=C(C[C@@H](C(F)F)n1ccc(F)n1)N1CCC(O)(Cn2cnc3c(cnn3-c3ccc(F)cc3)c2=O)CC1 [FT671],change in EGFP levels,GFPNb^R35Q-USP7 [1],substantial decrease
same,pIC50,USP7,7.28
same,pIC50,MM.1S cells,7.48
same,change in EGFP levels,GFPNb^E103Q-USP7,substantial decrease
same,pIC50,GFPNb^R35Q-USP7 [2],7.85
same,change in EGFP fluorescence levels,GFPNb^WT-USP7,weak (if any) decrease
GFPNb E103Q-mCherry (VHH),"relative stabilization of EGFP in 293T-Ub-R-C3 cells (flow cytometry), WT nanobody-mCherry normalized to 1 (fold decrease against the WT nanobody)",[3],100
XL177A,change in EGFP levels,GFPNb^R35Q-USP7 [4],substantial decrease
same,pIC50,purified USP7,9.47
same,change in EGFP levels,GFPNb^E103Q-USP7,substantial decrease
same,pIC50,GFPNb^R35Q-USP7 [5]; read-out: cellular IC50,6.72
same,change in EGFP fluorescence levels,GFPNb^WT-USP7; [8],weak (if any) decrease
CC(C)C[C@@H](C=O)NC(=O)[C@H](CC(C)C)NC(=O)[C@H](CC(C)C)NC(=O)OCc1ccccc1 [MG132] (Cbz-Leu-Leu-Leu-aldehyde),elevation of EGFP level over baseline,proteasome,over 50 fold
GFPNb R35Q-mCherry (VHH),"relative stabilization of EGFP in 293T-Ub-R-C3 cells (flow cytometry), WT nanobody-mCherry normalized to 1 (fold decrease against the WT nanobody)",[3],50
GFPNb R35Q-mCherry-USP7 fusion,"relative USP7 activity (EGFP stabilization, flow cytometry) in transfected 293T-Ub-R-C3 cells, against the WT nanobody fusion (fold less than the WT Nb fusion)",[3],2
CC(=O)c1cc([N+](=O)[O-])c(Sc2ccc(F)cc2F)s1 [P22077],change in EGFP levels,GFPNb^E103Q-USP7,no inhibitory activity
same,change in EGFP fluorescence levels,GFPNb^WT-USP7; [8],no inhibitory activity
GRL0617,start of time dependent decrease in EGFP signal post-treatment,SARS2-PL^pro,2 h
same,activity against homologous enzyme,[6],inactive
same,pIC50,SARS2 PL^pro,5.64 to 5.68
same,activity against homologous enzyme,[7],inactive
Cc1ccc2c(N)c(C(=O)N[C@H]3CCc4cc(N5CC6CCC(C5)N6)ccc4C3)sc2n1 [FT206],proliferation of KF LSCC cells,KF LSCC cells,inhibit proliferation
same,dose-dependence of EGFP degradation rate,GFPNb^R35Q-USP28,little dose-dependence
same,inhibition,GFPNb^R35Q-USP28,potent inhibition
same,rate of degradation of the EGFP reporter,GFPNb^R35Q-USP28,fastest degradation
same,pIC50,GFPNb^R35Q-USP28; read-out: cellular IC50,6.98 and ~6.98
same,inhibition,GFPNb^R35Q-USP7 [5],no inhibition
GFPNb E103Q-mCherry-USP7 fusion,"relative USP7 activity (EGFP stabilization, flow cytometry) in transfected 293T-Ub-R-C3 cells, against the WT nanobody fusion (fold less than the WT Nb fusion)",[3],3
